Measured values reported in patent US7049311B1, “Pyrrolbenzodiazepines” (Spirogen Limited, priority 1998, dated 2006).
Read-outs that look alike come from different tables or passages of the source.

Experiments:
LOX IMVI = assay: NCI in vitro cytotoxicity screen; type: cell-based; settings: Homo sapiens, 48 h, read-out: LC50
Method: (§1) The National Cancer Institute (NCI), Bethesda, Md., USA has available an in vitro cytotoxicity screen which consists of approximately 60 human tumour cell lines against which compounds are tested at a minimum of five concentrations each differing 10-fold. A 48 hour continuous exposure protocol is used, where cell viability or growth is estimated with an SRB protein assay.
(§2) The test compounds were evaluated against approximately 60 human tumour cell lines. The NCI screening procedures were described in detail by Monks and co-workers (Monks, A et al., Journal of the National Cancer Institute, 1991, 83, 757). Briefly, cell suspensions were diluted according to the particular cell type and the expected target cell density (5000-40,000 cells per well based on cell growth characteristics), and added by pipette (100 μL) into 96-well microtitre plates. The cells were allowed a preincubation period of 24 hours at 37° C. for stabilisation. Dilutions at twice the intended test concentration were added at time zero in 100 μL aliquots to the wells. The test compounds were evaluated at five 10-fold dilutions (10^−4, 10^−5, 10^−6, 10^−7 and 10^−[…]). The test compounds were incubated for 48 hours in 5% CO2 atmosphere and 100% humidity. The cells were then assayed using the sulphorhodamine B assay. A plate reader was used to read the optical densities and a microcomputer processed the readings into LC50 values, which is the dosage required to kill half of the cells.

M14 = assay: NCI in vitro cytotoxicity screen; type: cell-based; settings: Homo sapiens, M14, 48 h, read-out: LC50
Method: as §1, §2

MALME-3M = assay: NCI in vitro cytotoxicity screen; type: cell-based; settings: Homo sapiens, Malme-3M, 48 h, read-out: LC50
Method: as §1, §2

MDA-MB-435 = assay: NCI in vitro cytotoxicity screen; type: cell-based; settings: Homo sapiens, MDA-MB-435, 48 h, read-out: LC50
Method: as §1, §2

MDA-N = assay: NCI in vitro cytotoxicity screen; type: cell-based; settings: Homo sapiens, 48 h, read-out: LC50
Method: as §1, §2

NCI-H522 = assay: NCI in vitro cytotoxicity screen; type: cell-based; settings: Homo sapiens, NCI-H522, 48 h, read-out: LC50
Method: as §1, §2

RXF 393 = assay: NCI in vitro cytotoxicity screen; type: cell-based; settings: Homo sapiens, RXF 393, 48 h, read-out: LC50
Method: as §1, §2

SK-MEL-28 = assay: NCI in vitro cytotoxicity screen; type: cell-based; settings: Homo sapiens, SK-MEL-28, 48 h, read-out: LC50
Method: as §1, §2

SK-MEL-2 = assay: NCI in vitro cytotoxicity screen; type: cell-based; settings: Homo sapiens, SK-MEL-2, 48 h, read-out: LC50
Method: as §1, §2

A2780cisR = assay: Ovarian carcinoma cytotoxicity assay; type: cell-based, human; settings: Homo sapiens, A2780cisR
Method: (§3) Compounds of the invention (and Anthramycin as a comparison) were evaluated for their cytotoxic activity in ovarian cell lines by Dr Lloyd R. Kelland's group at The Institute of Cancer Research, Sutton, UK. The five cell lines investigated were SKOV-3, A2780/A2780cisR and CH1/CH1cisR (cis R denotes that the cell line is resistant to cisplatin).
(§4) Single viable cells were seeded in growth medium (160 μL) in […] microtitre plates and allowed to attach overnight. […] After 96 hours, the medium was removed and the remaining cells fixed by exposure to 10% trichloroacetic acid on ice for 30 minutes. The wells were then washed 3-4 times with tap water, air dried overnight and treated with 100 μL of sulphorhodamine B (0.4%) dissolved in 1% acetic acid. Staining was allowed to continue for 10-15 minutes, then the wells were washed 3-4 times with 1% acetic acid, air dried and then added to Tris base (100 μL of 10 mM). Plates were then shaken and absorbance readings at 540 nm were determined using a plate reader. By using the Quattro-Pro software package, the IC50 values were calculated from plots of concentration versus percentage absorbance (compared with 8 untreated wells).

A2780 = assay: Ovarian carcinoma cytotoxicity assay; type: cell-based, human; settings: Homo sapiens
Method: as §3, §4

CH1cisR = assay: Ovarian carcinoma cytotoxicity assay; type: cell-based; settings: Homo sapiens, CH1cisR
Method: as §3, §4

CH1 = assay: Ovarian carcinoma cytotoxicity assay; type: cell-based; settings: Homo sapiens
Method: as §3, §4

SKOV-3 = assay: Ovarian carcinoma cytotoxicity assay; type: cell-based; settings: Homo sapiens
Method: as §3, §4

COLO 205 = assay: NCI in vitro cytotoxicity screen; type: cell-based; settings: Homo sapiens, COLO 205, 48 h, read-out: LC50
Method: as §1, §2

HCC-2998 = assay: NCI in vitro cytotoxicity screen; type: cell-based; settings: Homo sapiens, HCC 2998, 48 h, read-out: LC50
Method: as §1, §2

NCI-H23 = assay: NCI in vitro cytotoxicity screen; type: cell-based; settings: Homo sapiens, NCI-H23, 48 h, read-out: LC50
Method: as §1, §2

SK-MEL-5 = assay: NCI in vitro cytotoxicity screen; type: cell-based; settings: Homo sapiens, SK-MEL-5, 48 h, read-out: LC50
Method: as §1, §2

UACC-257 = assay: NCI in vitro cytotoxicity screen; type: cell-based; settings: Homo sapiens, UACC-257, 48 h, read-out: LC50
Method: as §1, §2

UACC-62 = assay: NCI in vitro cytotoxicity screen; type: cell-based; settings: Homo sapiens, UACC-62, 48 h, read-out: LC50
Method: as §1, §2

[1] = tested on: human tumour cells cultivated in hollow fibres implanted in mice; assay: NCI Hollow Fibre Assay; type: in vivo
Text: The Biological testing Branch of the Developmental Therapeutics Program of the NCI has adopted a preliminary in vivo screening tool for assessing the potential anticancer activity of compounds identified by the large scale in vitro cell screen. For these assays, human tumour cells are cultivated in polyvinylidene (PVDF) hollow fibres, and a sample of each cell line is implanted into each of two physiologic compartments (intraperitoneal and subcutaneaous) in mice. Each test mouse received a total of 6 fibres (3 intraperitoneally and 3 subcutaneously) representing 3 distinct cancer cell lines. These mice are treated with potential antitumour compounds at each of 2 test doses by the intraperitoneal route using a QD×4 treatment schedule. Vehicle controls consist of 6 mice receiving the compound diluent only. The fibre cultures are collected on the day following the last day of treatment. To assess anticancer effects, the viable cell mass is determined for each of the cell lines using a formazyn dye (MTT) conversion assay. From this, the % T/C can be calculated using the average optical density of compound treated samples divided by the average optical; density of the vehicle controls. In addition, the net increase in cell mass can be determined for each sample, as a sample of fibre cultures are assessed for viable cell mass on the day of implantation into mice. Thus, the cytostatic and cytocidal capacities of the test compound can be assessed.
Generally, each compound is tested against a minimum of 12 human cancer cell lines. This represents a total of 4 experiments since each experiment contains 3 cell lines. The data are reported as % T/C for each of the 2 compound doses against each of the cell lines with separate values calculated for the intraperitoneal and subcutaneous samples.
Compounds are selected for further in vivo testing in standard subcutaneous xenograft models on the basis of several hollow fibre assay criteria. These include: (1) a % T/C of 50 or less in 10 of the 48 possible test combinations (12 cell lines×2 sites×2 Compound doses); (2) activity at a distance (intraperitoneal drug/subcutaneous culture) in a minimum of 4 of the 24 possible combinations; and/or (3) a net cell kill of 1 or more of the cell lines in either implant site. To simplify evaluation, a points system has been adopted which allows rapid evaluation of the activity of a given compound. For this, a value of 2 is assigned for each compound dose which results in a 50% or greater reduction in viable cell mass. The intraperitoneal and subcutaneous samples are scored separately so that criteria (1) and (2) can be evaluated. Compounds with a combined IP+SC score of 20, a SC score of 8 or a net cell kill of one or more cell lines are referred for xenograft testing. […] In addition to these criteria, other factors (e.g. unique structure, mechanism of action) may result in referral of a compound for xenograft testing without the compound meeting these criteria.

KM12 = assay: NCI in vitro cytotoxicity screen; type: cell-based; settings: Homo sapiens, KM12, 48 h, read-out: LC50
Method: as §1, §2

NCI-H226 = assay: NCI in vitro cytotoxicity screen; type: cell-based; settings: Homo sapiens, NCI-H226, 48 h, read-out: LC50
Method: as §1, §2

SF-539 = assay: NCI in vitro cytotoxicity screen; type: cell-based; settings: Homo sapiens, SF-539, 48 h, read-out: LC50
Method: as §1, §2

[2] = tested on: approximately 60 human tumour cell lines; assay: NCI in vitro cytotoxicity screen, whole panel; type: cell-based; settings: CNS panel
Method: as §1
as §2, with “The test compounds were incubated for 48 hours in 5% CO2 atmosphere and 100% humidity. The cells were then assayed using the sulphorhodamine B assay.” left out

786-0 = assay: NCI in vitro cytotoxicity screen; type: cell-based; settings: Homo sapiens, 786-0, 48 h, read-out: LC50
Method: as §1, §2

HCT-116 = assay: NCI in vitro cytotoxicity screen; type: cell-based; settings: Homo sapiens, HCT-116, 48 h, read-out: LC50
Method: as §1, §2

NCI-H460 = assay: NCI in vitro cytotoxicity screen; type: cell-based; settings: Homo sapiens, NCI-H460, 48 h, read-out: LC50
Method: as §1, §2

[3] = cisplatin-resistant, 96 hours, sulphorhodamine B, read-out: IC50 A2780cisR
[4] = A2780, 96 hours, sulphorhodamine B, read-out: IC50 A2780
[5] = cisplatin-resistant, 96 hours, sulphorhodamine B, read-out: IC50 CH1cisR
[6] = CH1, 96 hours, sulphorhodamine B, read-out: IC50 CH1
[7] = SK-OV-3, 96 hours, sulphorhodamine B, read-out: IC50 Skov3
[8] = 96 h, read-out: IC50 A2780cisR, cisplatin-resistant, 96 hours, sulphorhodamine B
[9] = CH1, 96 h, read-out: IC50 CH1, 96 hours, sulphorhodamine B

| SMILES | CC50 (M14) [µM] | CC50 (MALME-3M) [µM] | CC50 (MDA-MB-435) [µM] | CC50 (MDA-N) [µM] | CC50 (NCI-H522) [µM] | CC50 (RXF 393) [µM] | CC50 (SK-MEL-28) [µM] | CC50 (SK-MEL-2) [µM] | IC50 (A2780cisR; [3]) [µM] | IC50 (A2780; [4]) [µM] | IC50 (CH1cisR; [5]) [µM] | IC50 (CH1; [6]) [µM] | IC50 (SKOV-3; [7]) [µM] | CC50 (COLO 205) [µM] | CC50 (HCC-2998) [µM] | CC50 (NCI-H23) [µM] | CC50 (SK-MEL-5) [µM] | CC50 (UACC-257) [µM] | CC50 (UACC-62) [µM] | IC50 (A2780cisR; [8]) [µM] | also measured |
| --- | --- | --- | --- | --- | --- | --- | --- | --- | --- | --- | --- | --- | --- | --- | --- | --- | --- | --- | --- | --- | --- |
| COc1ccc2c(c1)C(=O)N1CCC[C@H]1C=N2 (stereo in doubt) [UP2068 (96), 7-methoxy-1,2,3,11a-tetrahydro-5H-pyrrolo[2,1-c][1,4]benzodiazepin-5-one] | 6.5 | 8.3 | 8.3 | 6.3 | 8.5 | 6.3 | 9.6 | 8.1 | 0.66 | 0.47 | 0.42 | 0.52 | 0.76 | – | – | – | – | – | – | – | CC50 (LOX IMVI): 9.7 µM |
| C=C1C[C@H]2C=Nc3cc(OCc4ccccc4)c(OC)cc3C(=O)N2C1 [UP2004 (70), (11aS)-8-Benzyloxy-7-methoxy-2-methylidene-1,2,3,11a-tetrahydro-5H-pyrrolo[2,1-c][1,4]benzodiazepin-5-one] | – | – | – | 9 | – | – | – | – | 0.2 | 0.029 | 0.082 | 0.017 | 0.35 | 3.9 | 5.5 | 7.6 | 7.8 | 7.3 | 5.3 | – | Total score ([1]; combined IP+SC score): 18; IP score ([1]; intraperitoneal fibres, 2 points per dose giving 50% or greater reduction in viable cell mass): 8; SC score ([1]; subcutaneous fibres, 2 points per dose giving 50% or greater reduction in viable cell mass): 10 |
| C=C1C[C@H]2C=Nc3ccc(I)cc3C(=O)N2C1 [UP2023 (64), (11as)-7-Iodo-2-methylidene-1,2,3,11a-tetrahydro-5H-pyrrolo[2,1-c][1,4]benzodiazepin-5-one] | – | 7.8 | 7.6 | 6.6 | 5.2 | 6.1 | 8.4 | 7.4 | 1.45 | 0.49 | 0.43 | 0.37 | 16 | 5.8 | 7 | – | 6 | – | 7.2 | – | CC50 (KM12): 7.1 µM; CC50 (NCI-H226): 9.1 µM; CC50 (SF-539): 9.4 µM |
| O=C1c2cc(-c3ccccc3)ccc2N=C[C@@H]2CCCN12 [UP2026 (136), (11aS)-7-Phenyl-1,2,3,11a-tetrahydro-5H-pyrrolo[2,1-c][1,4]benzodiazepin-5-one] | 7.8 | 6.1 | 6.3 | – | 7.8 | 7.6 | 7.1 | 7.4 | 3.7 | 1.15 | 1.45 | 1.5 | 4.9 | 8.8 | 6.4 | – | 9 | 7.7 | 6.6 | – | cytotoxicity in the CNS cell line panel [2]: inactive |
| COc1cc2c(cc1OCc1ccccc1)N=C[C@@H]1CC(CCOC(C)=O)=CN1C2=O [UP2051 (31), (11aS)-2-(Acyloxy-2-ethyl)-8-benzyloxy-7-methoxy-1,2,3,11a-tetrahydro-5H-pyrrolo[2,1-c][1,4]benzodiazepin-5-one] | – | 5.1 | – | – | – | 0.8 | – | 7.6 | – | – | – | – | – | – | 5.2 | 9.3 | – | – | – | 0.27 | IC50 (A2780; A2780, 96 h, read-out: IC50 A2780, 96 hours, sulphorhodamine B): 0.1 µM; IC50 (CH1cisR; 96 h, read-out: IC50 CH1cisR, cisplatin-resistant, 96 hours, sulphorhodamine B): 0.16 µM; IC50 (CH1; [9]): 0.105 µM; IC50 (SKOV-3; SK-OV-3, 96 h, read-out: IC50 Skov3, 96 hours, sulphorhodamine B): 0.46 µM |
| COc1cc2c(cc1OCc1ccccc1)N=C[C@@H]1CC(CCO)=CN1C2=O [UP2052 (33)] | 2.7 | – | – | – | 3.1 | – | – | 0.5 | – | 0.07 | 0.037 | – | 0.105 | – | 0.8 | – | – | – | – | 0.105 | CC50 (786-0): 3 µM; CC50 (HCT-116): 1.1 µM; CC50 (NCI-H460): 3 µM; IC50 (CH1; [9]): 0.09 µM |
